# Experimental data as given in patent US20250000932A1, “DIAGNOSIS AND TREATMENT OF VA[…]” (University Of Maryland, Baltimore, priority 2023, published 2025).
# Tested on: patients with catecholamine-resistant vasodilatory shock
# Assay: ATHOS-3: safety (adverse events, serious adverse events)
# Assay type: in vivo, human
# Conditions: patients with elevated renin concentrations at baseline
# Method: The use of Angiotensin II for the Treatment of High-Output Shock 3 (ATHOS-3) study has been described by Khanna et al. and Chawla et al. In brief, adults with vasodilatory shock despite volume resuscitation with 2:25 mL/kg and high-dose vasopressors were randomly assigned 1:1 to receive synthetic human angiotensin II (La Jolla Pharmaceutical Company™) or saline placebo plus standard vasopressors. Randomization was stratified according to MAP at screening and Acute Physiology and Chronic Health Evaluation II (APACHE II) score.
# The study drug infusion started at 20 ng/kg/min and was adjusted during the first 3 hours to increase the MAP to 2:75 mm Hg while keeping other vasopressors constant. Thereafter, the study drug and other vasopressors were adjusted at the discretion of the treating ICU team to maintain a MAP between 65 and 75 mm Hg. At 48 hours, the infusion was discontinued according to a protocol-specified tapering process. However, continuation was allowed for up to 7 days at the discretion of the ICU team.
# Safety was evaluated by assessment of treatment-emergent adverse events, serious adverse events, and adverse event-related drug discontinuations.
smiles,measurement,value
"CC[C@H](C)[C@H](NC(=O)[C@H](Cc1ccc(O)cc1)NC(=O)[C@@H](NC(=O)[C@H](CCCNC(=N)N)NC(=O)[C@@H](N)CC(=O)O)C(C)C)C(=O)N[C@@H](Cc1cnc[nH]1)C(=O)N1CCC[C@H]1C(=O)N[C@@H](Cc1ccccc1)C(=O)O [Angiotensin II, angiotensin II]",adverse events or serious adverse events vs placebo,no significant difference
